Assay results from US8445462B2, “Composition for the treatment of osteoarthritis” (Bioiberica, S.A., priority 2007, dated 2013).
Structures can show the parent of a compound that is named as a salt.

Tested on: experimental osteoarthritis induced by partial medial meniscectomy in guinea pigs
Assay: Experimental osteoarthritis induced by partial medial meniscectomy in guinea pigs: chondroprotective activity and modified Mankin histological evaluation
Format: in vivo, Dunkin Hartley (DH) guinea pigs
Settings: CS 95 mg/kg/day, Man 60 mg/kg/day; for average chondroprotective activity (GAGs, cartilage structure, chondrocyte proliferation): oral gavage once a day for 70 days, blank control group 100%, operated control group 0%; for global histopathological score (modified Mankin) with respect to the operated group, result in words: oral, 70 days
Text: The objective was to evaluate the chondroprotective activity (cartilage protective activity) of a composition formed by a mixture of chondroitin sulphate and mannosamine hydrochloride as sole active components, in a model of experimental osteoarthritis induced by partial medial meniscectomy in guinea pigs (A. M. Bendele, Progressive chronic osteoarthritis in femorotibial joints of partial medial meniscectomized guinea pigs, Vet. Pathol. 24, 444-448 (1987)), comparing said activity with the chondroprotective activity of chondroitin sulphate and of mannosamine hydrochloride.
Dunkin Hartley (DH) guinea pigs with a weight comprised between 580 and 699 g were used. A partial medial meniscectomy was performed in a part of them.
The following treatment groups were formed: blank control group (corresponding to healthy guinea pigs), operated control group (corresponding to guinea pigs in which a partial medial meniscectomy was performed to induce an experimental osteoarthritis in them), operated guinea pigs to which the sodium salt of chondroitin sulphate (95 mg/kg of body weight/day) was administered, operated guinea pigs to which mannosamine hydrochloride (60 mg/kg of body weight/day) was administered, operated guinea pigs to which a mixture of sodium salt of chondroitin sulphate (95 mg/kg of body weight/day) and mannosamine hydrochloride (60 mg/kg of body weight/day) was administered.
On the day after the surgery, the daily administration of the corresponding oral treatments by means of gastric gavage was started, the carrier used being water for injection. The blank control and operated control groups only received the carrier (water for injection) by oral route.
The treatments were administered once a day for 70 days (ten weeks). The body weight and the clinical signs of the animals were recorded twice a day. No remarkable clinical signs were observed throughout the treatment period.
On the day after the administration had ended, the animals were sacrificed by anaesthetic overdose (pentobarbital sodium) and the femorotibial joint of the right rear leg was removed for its fixing in 10% formol for at least 48 hours. Then, they were decalcified, included in paraffin, the necessary sections were obtained and the stainings with Hematoxylin-Eosin and Safranin-O-Fast Green (or Toluidine Blue) were performed for their histological evaluation, which was performed by a pathologist in a blind manner.
The severity of the osteoarthritic injuries was evaluated by means of the modified histologic/histochemical scale of Mankin et al. (H J. Mankin and L. Lipiello Biochemical and metabolic abnormalities in articular cartilage from osteoarthritic human hips. J. Bone Joint Surg.-Amer. 53-A, 523-537 (1971)). […]

Compound | average chondroprotective activity (GAGs, cartilage structure, chondrocyte proliferation) | global histopathological score (modified Mankin) with respect to the operated group, result in words
N[C@@H]1C(O)O[C@H](CO)[C@@H](O)[C@@H]1O (stereo partly drawn) [mannosamine hydrochloride, 2-amino-2-deoxy-D-mannose] | −21% | no statistically significant differences
chondroitin sulphate | 12% | improvement with respect to the operated group, but without statistical significance
